For test [1], the system named is AML sample. The test is described as follows: In vitro treatment of an AML sample with a demethylating agent; expression level of genes SEQ ID NO: 1-24 by qRT-PCR (oxydogram). It counts as cell-based, human. As to conditions: AML sample of one patient treated in vitro, compared with same untreated AML sample (FIG. 8). From the text:
Three micrograms of total RNA from each sample were reverse transcribed using the SuperScript® VILO™ cDNA Synthesis kit (Invitrogen) according to the protocol of the supplier. The relative quantification of gene expression was done by real-time PCR on the LightCycler® 480 microwell plate-based cycler platform (Roche Applied Science) using Universal ProbeLibrary assays designed with the ProbeFinder software (Roche Applied Science, www.roche-applied-science.com/sis/rtper/upl/ezhome.html). Primers were purchased from Invitrogen and Universal ProbeLibrary probes from Roche Applied Science. The nucleotide sequences of the primers and probes of each target are shown in Table A. All targets were concomitantly analyzed. qRT-PCR reactions were carried out in a total volume of 10 μL on 20 ng of cDNA using LightCycler® 480 Probes Master (Roche Applied Science). The LightCycler® 480 was programmed to an initial denaturation (95° C., 10 min) following by 45 cycles of 10 sec at 95° C., 30 sec at 60° C., 1 sec at 72° C. and a final cooling step at 40° C. for 10 sec. All reactions were run in triplicate, and average values were used for quantification. Results were analyzed by the relative quantification method (ΔΔCT=ΔCTpatient−ΔCTreference) using the Cycle threshold (CT) values determined with the LightCycler® 480 software (release 1.5.0) from Roche Applied Science. […]
Background: Quantitative PCR measures a nucleic acid by following its amplification.

The test system of test [2] is AML and high grade MDS. As to conditions: background statement; cited from earlier work.

“Also recorded” adds a separate entry of the source.

Turning to `Nc1ncn([C@@H]2O[C@H](CO)[C@@H](O)[C@H]2O)c(=O)n1` [azacytidine, 5-azacytidine], the “modulation of the expression level (ratio) of the genes SEQ ID NO: 1-24” value in test [1] is “can modulate the expression ratio of the genes SEQ ID NO: 1-24; also recorded: modify the expression level of the genes”. Also, the “share of AML and high grade MDS sensitive to the agents' effects” value in test [2] is given as “about 30%”.

In the case of `Nc1ncn([C@H]2C[C@H](O)[C@@H](CO)O2)c(=O)n1` [decitabine, 5-azadeoxycytidine], the “share of AML and high grade MDS sensitive to the agents' effects” value in test [2] is “about 30%”.
